Like-named read-outs stand apart in the source and are kept apart here. Marks after values point to notes of the source that are not given here.
Columns and labels:
[1] = tested on: blood pressure / hemodynamics; experiment: Hemodynamic effects during isoflurane anesthesia; type: in vivo, rats
Description: (§1) 200 mg of each compound are tested for general anesthesia activity Testing is performed on rats to determine the percent reduction in the use of isoflurane. Inhaled anesthetics still need to be utilized to rapidly adjust the level of anesthesia. Since no single anesthetic is capable of all four requirements for anesthesia, a combination is utilized. The rats were first anesthetized with isoflurane, intubated, ventilated and then a femoral line was inserted. After the rat had been stable for 15 minutes, the initial minimum alveolar concentration (MAC) value was determined. Then, 60 mg/kg of drug was sonicated in 3 mL of peanut oil and injected (i.p.). After 30 minutes the second MAC value was determined post administration. Finally, after one hour the third MAC value was determined. At each MAC determination, a sample of blood was taken to determine pH, pCO2, and pO2. The results of the compounds tested to date are compared to the lead compound 17.

[2] = tested on: Isoflurane anesthesia (minimum alveolar concentration, MAC); experiment: General anesthesia test: reduction of isoflurane MAC after i.p. compound; type: in vivo, rats; details: for MAC value of Isoflurane at 60 mg/kg of compound / Percent Reduction in Isoflurane: rats; for MAC value of Isoflurane at 60 mg/kg of compound: 60 mg/kg i.p. in peanut oil, 1.2% isoflurane generates 100% anesthesia; for Percent Reduction in Isoflurane: 60 mg/kg i.p., relative to 1.2% isoflurane; for anesthetic activity: rat, in vivo
Description: The MAC value is the minimum alveolar concentration of anesthetic at 1 atm that produces immobility in 50% of the subjects.
as §1, with “Then, 60 mg/kg of drug was sonicated in 3 mL of peanut oil and injected (i.p.).” left out
(§2) A classical comparison of log P and MAC reduction was investigated. A graph representing the effects of log P on the biological activity is presented in graphic form (See FIG. 1). The general anesthetic activity of compounds 20-23 and 36-43 were compared to lead compound 17 as represented in the graph (FIG. 1) and in Table 1. The partition coefficient, P, is a measure of the way the compound distributes itself between octanol and water. […] Therefore, meta-substituted derivatives 20 will be the focus of future synthesize. Bulky substituents on the alcohol were also found to have low activity.

rats = experiment: Anticonvulsant testing of compound 17 in rats (oral ED50, toxicity, surgical anesthesia); type: in vivo
Excerpt: In addition increased halogen size and saturation at the position 3 carbon also increase anesthetic activity. A hydrogen bond donor is also important at the position 2 carbon, but bulk is not well tolerated.

[3] = tested on: seizures induced by maximal electroshock (MES); experiment: Maximal electroshock (MES) test, rat oral (NIH); type: in vivo, rats; details: 30 mg/kg; for MES, animals protected/animals tested: rat oral
Description: (§3) 300 mg of each compound was synthesized and sent to the National institute of Health's Anticonvulsant Screening Project of the Antiepileptic Drug Discovery Program. NIH performs anticonvulsant testing (oral and intraperitoneal, i.p.) on both mice and rats in phase I trials. The grand mal model is conducted with a maximal electroshock (MES) test, where corneal electrode implants are primed with a drop of electrolyte solution and an electrical stimulus is delivered for 0.2 second. The model examines the compounds' ability to stop the spread of seizures. The petite mal model is conducted with a subcutaneous pentylenetetrazol seizure threshold (scMet) test. The animals are injected with a convulsant dose of pentylenetetrazol at the peak effect time of the compound. This model measures the compounds' threshold for seizures. A toxicity test (TOX) is performed where the animals walk on a spinning rod for varying lengths of time to check for the loss of righting reflex or other toxic effects.

[4] = tested on: loss of righting reflex or other toxic effects on spinning rod; experiment: Toxicity test (TOX), spinning rod, mice i.p. (NIH); type: in vivo; details: for TOX, animals affected/animals tested: mice i.p.
Description: as §3

toxicity, lethal dose = experiment: Toxicity / lethal dose noted with general anesthetic activity comparison; type: in vivo; details: for toxicity: same dosage = 300 mg/kg; for lethal dose: in vivo
Excerpt: as §2

[5] = tested on: seizures induced by maximal electroshock (MES); experiment: Maximal electroshock (MES) test, mice i.p. (NIH); type: in vivo; details: for MES, mice protected: phase I i.p. mice; for MES, animals protected/animals tested: mice i.p.
Description: as §3

[6] = tested on: pentylenetetrazol-induced seizures (scMet); experiment: Subcutaneous pentylenetetrazol seizure threshold (scMet) test, mice i.p. (NIH); type: in vivo; details: for SCMET, animals protected/animals tested: mice i.p.
Description: as §3

[7] = tested on: loss of righting reflex or other toxic effects on spinning rod; experiment: Toxicity test (TOX), spinning rod, rat oral (NIH); type: in vivo, rats; details: 30 mg/kg
Description: as §3

blood dyscrasias, rash = details: 1950's findings; cited from earlier work
seizures = details: cited from earlier work; for anticonvulsant activity: tested in the 1950's
[8] = rats, 60 mg/kg i.p., isoflurane anesthesia
[9] = 300 mg/kg, 0.5 hours, footnotes: loss of righting reflex (and one death for Cmp 20, 21)
[10] = 300 mg/kg, 4.0 hours, footnote c: loss of righting reflex (Cmp 20, 21)

Row | Structure (SMILES) | MAC value of Isoflurane at 60 mg/kg of compound [2] [%] | Percent Reduction in Isoflurane [2] [%] | anesthetic activity [2] | toxicity (toxicity, lethal dose) | Hemodynamic Effects [1, 8] | TOX, animals affected/animals tested ([4]; 30 mg/kg, 0.5 hours) | TOX, animals affected/animals tested ([4]; 30 mg/kg, 4.0 hours) | TOX, animals affected/animals tested ([4]; 100 mg/kg, 0.5 hours) | TOX, animals affected/animals tested ([4]; 100 mg/kg, 4.0 hours) | TOX, animals affected/animals tested [4, 9] | TOX, animals affected/animals tested [4, 10] | MES, animals protected/animals tested ([5]; 30 mg/kg, 0.5 hours) | MES, animals protected/animals tested ([5]; 30 mg/kg, 4.0 hours) | MES, animals protected/animals tested ([5]; 100 mg/kg, 0.5 hours) | MES, animals protected/animals tested ([5]; 100 mg/kg, 4.0 hours) | SCMET, animals protected/animals tested ([6]; 30 mg/kg, 0.5 hours) | SCMET, animals protected/animals tested ([6]; 30 mg/kg, 4.0 hours) | SCMET, animals protected/animals tested ([6]; 100 mg/kg, 0.5 hours) | SCMET, animals protected/animals tested ([6]; 100 mg/kg, 4.0 hours) | other results
1 | NC(=O)C(O)(c1ccccc1)C(F)(F)F (stereo not drawn) [Compound 17, 3,3,3-Trifluoro-2-hydroxy-2-phenyl-propionamide] | 0.65 | 46 |  |  |  |  |  |  |  |  |  |  |  |  |  |  |  |  |  | Hemodynamic Effects ([1]; rat, in vivo): no hemodynamic effects; Hemodynamic Effects ([1]; rat, in vivo, ip, 60 mg/kg): none; lowering of minimum alveolar concentration (MAC) value of isoflurane ([2]; isoflurane 1.2% in O2, dose not stated): sixty; ED50 (rats; Rattus norvegicus, rats, oral, read-out: anesthetic activity, oral ED50): 9 mg/kg; toxicity at dose (rats; rats, oral): 300 mg/kg; stage of anesthesia exhibited by animals (rats; third stage: general loss of spinal reflexes and muscle tone): surgical anesthesia
2 | NC(=O)C(O)(c1ccc(F)cc1)C(F)(F)F (stereo not drawn) [Compound 39, 3,3,3-Trifluoro-2-hydroxy-2-(4-fluoro-phenyl)-propionamide] |  |  | very active | toxic at the same dosage |  |  |  |  |  |  |  |  |  |  |  |  |  |  |  | MES, rats protected ([3]; phase I oral rat, duration of 2 hours): 4 out of 4; Neurotoxicity, mice unable to grasp rod ([4]; mice, 100 mg/kg, duration of 0.5 hours): seven of eight; animals with a 100% reduction in Isoflurane MAC ([2]; 300 mg/kg): 3 out of 4; MES, mice protected ([5]; 100 mg/kg, duration of 0.5 hours): 5 out of 5; MES, mice protected ([5]; 100 mg/kg, duration of 1 hour): 2 out of 3; activity as an anticonvulsant in scMET assay ([6]; species and dose not stated): demonstrated activity
3 | O=C1Nc2ccccc2C1(O)C(F)(F)F (stereo not drawn) [Compound 22] | 1.05 | 12.5 |  |  | none |  |  |  |  |  |  |  |  |  |  |  |  |  |  | 
4 | NC(=O)C(O)(c1ccccc1)C(F)(F)Cl (stereo not drawn) [Compound 42] |  |  | high activity | very toxic |  |  |  |  |  |  |  |  |  |  |  |  |  |  |  | lethal dose (toxicity, lethal dose): 300 mg/kg
5 | CN1C(=O)C(O)(C(F)(F)F)c2ccccc21 (stereo not drawn) [Compound 23] | 0.95 | 20.8 |  |  | none | 0/4 | 0/2 | 1/8 | 0/4 | 4/4^c | 1/2 | 0/1 | 0/1 | 3/3 | 0/3 | 1/5 | 0/1 | 0/1 | 0/1 | TOX, animals affected/animals tested ([7]; 0.25 hrs.): 0/4; TOX, animals affected/animals tested ([7]; 0.5 hrs.): 0/4; TOX, animals affected/animals tested ([7]; 1.0 hrs.): 0/4; TOX, animals affected/animals tested ([7]; 2.0 hrs.): 0/4; TOX, animals affected/animals tested ([7]; 4.0 hrs.): 0/4; MES, animals protected/animals tested ([3]; 0.25 hrs.): 2/4; MES, animals protected/animals tested ([3]; 0.5 hrs.): 1/4; MES, animals protected/animals tested ([3]; 1.0 hrs.): 2/4; MES, animals protected/animals tested ([3]; 2.0 hrs.): 2/4; MES, animals protected/animals tested ([3]; 4.0 hrs.): 2/4; MES, animals protected/animals tested ([5]; 300 mg/kg, 0.5 hours): 1/1; MES, animals protected/animals tested ([5]; 300 mg/kg, 4.0 hours): 1/1; SCMET, animals protected/animals tested ([6]; 300 mg/kg, 0.5 hours): 1/1; SCMET, animals protected/animals tested ([6]; 300 mg/kg, 4.0 hours): 1/1
6 | NC(=O)C(O)(c1cccc(F)c1)C(F)(F)F (racemic) [Compound 20] | 0.70 | 42 | high activity | very toxic | lowers blood | 0/4 | 0/2 | 6/8 | 0/4 | 4/4^b | 1/1^c | 0/1^a | 0/1 | 3/3 | 3/3 | 2/5 | 0/1 | 1/1 | 1/1 | lethal dose (toxicity, lethal dose): 300 mg/kg; MES, animals protected/animals tested ([5]; 300 mg/kg, 0.5 hours): 0/0; MES, animals protected/animals tested ([5]; 300 mg/kg, 4.0 hours): 1/1
7 | CC(O)(C(N)=O)c1ccccc1 (racemic) [Themisone, α-hydroxy-α-methylbenzeneacetamide] |  |  | no anesthetic activity |  |  |  |  |  |  |  |  |  |  |  |  |  |  |  |  | toxicity (blood dyscrasias, rash): toxic (blood dyscrasias, rash); mice protected against seizures (seizures; racemic mixture, 250 mg/kg): 4 out of 4; anticonvulsant activity (seizures): very potent anticonvulsant; anticonvulsant activity (seizures; listed as atrolactamide (themisone)): anticonvulsant activity
8 | NC(=O)C(O)(c1ccc(Cl)cc1)C(F)(F)F (racemic) [Compound 21] | 0.65 | 46 | very active | toxic at the same dosage | none | 0/4 | 0/2 | 6/8 | 3/4 | 4/4^b | 1/1^c | 0/1 | 0/1 | 0/3 | 1/3 | 0/1 | 0/1 | 4/4 | 1/1 | TOX, animals affected/animals tested ([7]; 0.25 hrs.): 0/4; TOX, animals affected/animals tested ([7]; 0.5 hrs.): 0/4; TOX, animals affected/animals tested ([7]; 1.0 hrs.): 0/4; TOX, animals affected/animals tested ([7]; 2.0 hrs.): 0/4; TOX, animals affected/animals tested ([7]; 4.0 hrs.): 0/4; MES, animals protected/animals tested ([3]; 0.25 hrs.): 1/4; MES, animals protected/animals tested ([3]; 0.5 hrs.): 1/4; MES, animals protected/animals tested ([3]; 1.0 hrs.): 1/4; MES, animals protected/animals tested ([3]; 2.0 hrs.): 1/4; MES, animals protected/animals tested ([3]; 4.0 hrs.): 1/4; SCMET, animals protected/animals tested ([6]; 300 mg/kg, 0.5 hours): 0/0; SCMET, animals protected/animals tested ([6]; 300 mg/kg, 4.0 hours): 1/1
